target: T1, human type 1 glycine transporter (GlyT1) (Homo sapiens, UniProt P48067); assay: Glycine uptake inhibition experiment ([3H]glycine uptake); type: cell-based; settings: GlyT1
T1 construct: T98G cells (glioma cells) expressing human type 1 glycine transporter (GlyT1) were used
T1 sequence (P48067 1-706): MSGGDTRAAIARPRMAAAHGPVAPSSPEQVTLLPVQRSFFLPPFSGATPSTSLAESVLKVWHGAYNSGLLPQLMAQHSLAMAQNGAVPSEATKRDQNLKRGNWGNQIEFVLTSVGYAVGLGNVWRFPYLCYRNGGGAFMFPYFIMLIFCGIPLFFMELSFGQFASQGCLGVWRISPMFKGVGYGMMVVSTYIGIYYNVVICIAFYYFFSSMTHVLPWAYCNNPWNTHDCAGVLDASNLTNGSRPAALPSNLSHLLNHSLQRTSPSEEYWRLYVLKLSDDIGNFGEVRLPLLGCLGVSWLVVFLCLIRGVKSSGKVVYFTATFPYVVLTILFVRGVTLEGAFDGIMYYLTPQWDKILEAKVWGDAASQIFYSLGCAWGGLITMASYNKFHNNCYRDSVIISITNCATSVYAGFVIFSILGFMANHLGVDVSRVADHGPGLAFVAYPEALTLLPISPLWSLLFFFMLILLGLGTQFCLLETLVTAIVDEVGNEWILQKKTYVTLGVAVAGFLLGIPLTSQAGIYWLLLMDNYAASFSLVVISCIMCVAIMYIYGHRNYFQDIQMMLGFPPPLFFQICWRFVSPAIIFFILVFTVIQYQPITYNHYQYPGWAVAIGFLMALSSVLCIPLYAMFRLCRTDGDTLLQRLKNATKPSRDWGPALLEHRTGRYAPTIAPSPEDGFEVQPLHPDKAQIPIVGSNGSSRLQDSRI
Method: Glycine Uptake Inhibition Experiment
A glycine uptake experiment was conducted in accordance with the method published in Neuron, 8, 927-935, 1992. In the experiment, T98G cells (glioma cells) expressing human type 1 glycine transporter (GlyT1) were used. The T98G cells were seeded in a 96-well plate at 2.0×10^4 cells/well and cultured overnight in a CO2 incubator. The test substance was dissolved in a 100% DMSO solution and then dissolved in a 10 mM HEPES buffer solution (pH 7.4) containing 150 mM sodium chloride, 1 mM calcium chloride, 5 mM potassium chloride, 1 mM magnesium chloride, 10 mM glucose and 0.2% bovine serum albumin. After removing the cell culture medium, the test substance was subjected to a 10-min pretreatment. Subsequently, the test substance and [^3H] glycine (final concentration: 250 nM) were added to the cells and reaction was performed at room temperature for 15 minutes. After the end of the reaction, the extracellular fluid was aspirated with a manifold to remove excess labeled glycine present outside the cells, and then the cells were lysed with a 0.5 M aqueous sodium hydroxide solution. The glycine content in the cells was determined by measuring the radioactivity in the cell lysate with a liquid scintillation counter. Glycine uptake in the presence of 10 μM ALX5407 was defined as non-specific uptake, and the value calculated by subtracting the amount of the non-specific uptake from the total uptake in the absence of 10 μM ALX5407 was defined as specific uptake. In addition, glycine uptake inhibitory activity (IC50 value) was calculated from an inhibition curve at the concentrations of each test substance ranging from 10^−9 to 10^−5 M. It should be noted that ALX5407 is an HCl salt of N-[(3R)-3-([1,1′-biphenyl]-4-yloxy)-3-(4-fluorophenyl)propyl]-N-methylglycine.

IC50 | SMILES
62 nM | O=C(NC(c1cccc(Cl)c1Cl)C1(O)CCC(F)(F)CC1)c1nccc(C(F)(F)F)c1Cl (single isomer, unassigned) [Compound 137, 3-chloro-N-[(2,3-dichlorophenyl)(4,4-difluoro-1-hydroxycyclohexyl)methyl]-4-(trifluoromethyl)pyridine-2-carboxamide]
530 nM | CCn1cc(-c2cccc(C(NC(=O)c3cccc(Cl)c3Cl)C3(O)CCC(F)(F)CC3)c2)cn1 (single isomer, unassigned) [Compound 144, 2,3-dichloro-N-{(4,4-difluoro-1-hydroxycyclohexyl)[3-(1-ethyl-1H-pyrazol-4-yl)phenyl]methyl}benzamide]
670 nM | CCn1cc(-c2cccc(C(NC(=O)c3cccc(Cl)c3Cl)C3(O)CCC(F)(F)CC3)c2)cn1 (single isomer, unassigned) [Compound 145, 2,3-dichloro-N-{(4,4-difluoro-1-hydroxycyclohexyl)[3-(1-ethyl-1H-pyrazol-4-yl)phenyl]methyl}benzamide]
110 nM | O=C(NC(c1ccccc1Cl)C1(O)CCC(F)(F)CC1)c1nccc(C(F)(F)F)c1Cl (single isomer, unassigned) [Compound 147, 3-chloro-N-[(2-chlorophenyl)(4,4-difluoro-1-hydroxycyclohexyl)methyl]-4-(trifluoromethyl)pyridine-2-carboxamide]
2600 nM | CCn1cc(-c2cccc(C(NC(=O)c3cccc(C(F)(F)F)c3C)C3(O)CCC(F)(F)CC3)c2)cn1 (single isomer, unassigned) [Compound 149, N-{(4,4-difluoro-1-hydroxycyclohexyl)[3-(1-ethyl-1H-pyrazol-4-yl)phenyl]methyl}-2-methyl-3-(trifluoromethyl)benzamide]
840 nM | CCn1cc(-c2cccc(C(NC(=O)c3cccc(C(F)(F)F)c3C)C3(O)CCC(F)(F)CC3)c2)cn1 (single isomer, unassigned) [Compound 150, N-{(4,4-difluoro-1-hydroxycyclohexyl)[3-(1-ethyl-1H-pyrazol-4-yl)phenyl]methyl}-2-methyl-3-(trifluoromethyl)benzamide]
3300 nM | CCn1cc(-c2cccc(C(NC(=O)c3cccc(C)c3Cl)C3(O)CCC(F)(F)CC3)c2)cn1 (single isomer, unassigned) [Compound 151, 2-chloro-N-{(4,4-difluoro-1-hydroxycyclohexyl)[3-(1-ethyl-1H-pyrazol-4-yl)phenyl]methyl}-3-methylbenzamide]
1300 nM | CCn1cc(-c2cccc(C(NC(=O)c3cccc(C)c3Cl)C3(O)CCC(F)(F)CC3)c2)cn1 (single isomer, unassigned) [Compound 152, 2-chloro-N-{(4,4-difluoro-1-hydroxycyclohexyl)[3-(1-ethyl-1H-pyrazol-4-yl)phenyl]methyl}-3-methylbenzamide]
170 nM | O=C(NC(c1ccccc1Cl)C1(O)CCC(F)(F)CC1)c1ccnc(C(F)(F)F)c1Cl (single isomer, unassigned) [Compound 155, 3-chloro-N-[(2-chlorophenyl)(4,4-difluoro-1-hydroxycyclohexyl)methyl]-2-(trifluoromethyl)pyridine-4-carboxamide]
1800 nM | O=C(NC(c1ccccc1Cl)C1(O)CCC(F)(F)CC1)c1nccc(C(F)(F)F)c1Cl (single isomer, unassigned) [Compound 156, 3-chloro-N-[(2-chlorophenyl)(4,4-difluoro-1-hydroxycyclohexyl)methyl]-4-(trifluoromethyl)pyridine-2-carboxamide]
120 nM | O=C(NC(c1cccc(F)c1F)C1(O)CCC(F)(F)CC1)c1nccc(C(F)(F)F)c1Cl (single isomer, unassigned) [Compound 164, 3-chloro-N-[(4,4-difluoro-1-hydroxycyclohexyl)(2,3-difluorophenyl)methyl]-4-(trifluoromethyl)pyridine-2-carboxamide]
210 nM | O=C(NC(c1cccc(F)c1F)C1(O)CCC(F)(F)CC1)c1ccnc(C(F)(F)F)c1Cl (single isomer, unassigned) [Compound 165, 3-chloro-N-[(4,4-difluoro-1-hydroxycyclohexyl)(2,3-difluorophenyl)methyl]-2-(trifluromethyl)pyridine-4-carboxamide]
180 nM | O=C(NC(c1cccc(Cl)c1)C1(O)CCC(F)(F)CC1)c1nccc(C(F)(F)F)c1Cl (single isomer, unassigned) [Compound 166, 3-chloro-N-[(3-chlorophenyl)(4,4-difluoro-1-hydroxycyclohexyl)methyl]-4-(trifluoromethyl)pyridine-2-carboxamide]
210 nM | O=C(NC(c1cccc(Cl)c1)C1(O)CCC(F)(F)CC1)c1ccnc(C(F)(F)F)c1Cl (single isomer, unassigned) [Compound 167, 3-chloro-N-[(3-chlorophenyl)(4,4-difluoro-1-hydroxycyclohexyl)methyl]-2-(trifluoromethyl)pyridine-4-carboxamide]
57 nM | O=C(NC(c1cccc(Cl)c1F)C1(O)CCC(F)(F)CC1)c1nccc(C(F)(F)F)c1Cl (single isomer, unassigned) [Compound 168, 3-chloro-N-[(3-chloro-2-fluorophenyl)(4,4-difluoro-1-hydroxycyclohexyl)methyl]-4-(trifluoromethyl)pyridine-2-carboxamide]
95 nM | O=C(NC(c1cccc(Cl)c1F)C1(O)CCC(F)(F)CC1)c1ccnc(C(F)(F)F)c1Cl (single isomer, unassigned) [Compound 169, 3-chloro-N-[(3-chloro-2-fluorophenyl)(4,4-difluoro-1-hydroxycyclohexyl)methyl]-2-(trifluoromethyl)pyridine-4-carboxamide]
100 nM | O=C(NC(c1cccc(F)c1Cl)C1(O)CCC(F)(F)CC1)c1nccc(C(F)(F)F)c1Cl (single isomer, unassigned) [Compound 177, 3-chloro-N-[(2-chloro-3-fluorophenyl)(4,4-difluoro-1-hydroxycyclohexyl)methyl]-4-(trifluoromethyl)pyridine-2-carboxamide]
130 nM | O=C(NC(c1cccc(F)c1Cl)C1(O)CCC(F)(F)CC1)c1ccnc(C(F)(F)F)c1Cl (single isomer, unassigned) [Compound 178, 3-chloro-N-[(2-chloro-3-fluorophenyl)(4,4-difluoro-1-hydroxycyclohexyl)methyl]-2-(trifluoromethyl)pyridine-4-carboxamide]
140 nM | O=C(NC(c1cccc(Cl)c1)C1(O)CCCC1)c1ccnc(C(F)(F)F)c1Cl (single isomer, unassigned) [Compound 185, 3-chloro-N-[(3-chlorophenyl)(1-hydroxycyclopentyl)methyl]-2-(trifluoromethyl)pyridine-4-carboxamide]
73 nM | O=C(NC(c1cccc(-c2ccccn2)c1)C1(O)CCC(F)(F)CC1)c1nccc(C(F)(F)F)c1Cl (single isomer, unassigned) [Compound 188, 3-chloro-N-{(4,4-difluoro-1-hydroxycyclohexyl)[3-(pyridin-2-yl)phenyl]methyl]-4-(trifluoromethyl)pyridine-2-carboxamide]
200 nM | O=C(NC(c1cccc(-c2ccccn2)c1)C1(O)CCC(F)(F)CC1)c1ccnc(C(F)(F)F)c1Cl (single isomer, unassigned) [Compound 189, 3-chloro-N-{(4,4-difluoro-1-hydroxycyclohexyl)[3-(pyridin-2-yl)phenyl]methyl}-2-(trifluoromethyl)pyridine-4-carboxamide]
490 nM | O=C(NC(c1cccc(-c2ccccn2)c1)C1(O)CCC(F)(F)CC1)c1cc(C(F)(F)F)ccc1Cl (single isomer, unassigned) [Compound 190, 2-chloro-N-[(4,4-difluoro-1-hydroxycyclohexyl)[3-(pyridin-2-yl)phenyl]methyl}-5-(trifluoromethyl)benzamide]
